{
  "source": "patent US20200247851A1",
  "about": "“Methods For Generating Epitopes For Binding To Recognition Molecules By Templated Assembly” (TriBiotica LLC, priority 2017, published 2020)",
  "molecules": {"B1": {"name": "GCAAAGACATCTGGACA CGCCACTTATAGTCTACGTGAAGCACTGCGCTGGAACAGCCTAAAAAAGGAGAAGG AGACTTAGAGGC (nucleic acid)", "DNA": "GCAAAGACATCTGGACACGCCACTTATAGTCTACGTGAAGCACTGCGCTGGAACAGCCTAAAAAAGGAGAAGGAGACTTAGAGGC", "modifications": "chemistry not given here"}},
  "key": {"[1]": {"system": "bilabeled fluorescent probe sequence", "conditions": "human EBV-transformed B lymphoid cell line, biotinylated W6/32, streptavidin bridge", "description": "Following incubation of cells (10^6/ml) with a biotin conjugate of primary antibody pan-specific for human Class I (W6/32) and washing in phosphate-buffered saline (pH 7.2; PBS), the cell preparation was treated with a large excess of unmodified tetravalent streptavidin (Sigma; 10 μl each of 100 μM streptavidin per 100 μl of cells at 10^6/ml) for 30 minutes at room temperature, and rewashed in PBS.\nFollowing this, a biotinylated template oligonucleotide was added, such that its terminal biotin group becomes bound to free sites on the surface streptavidin. […] The DNA template sequence used in this example corresponds to a transcribed segment of human papillomavirus (HPV), of sequence: 5′-Biotin-[sequence] […] As a control, a scrambled version of this sequence was used: 5′ Biotin-[sequence]"}, "trastuzumab [2]": {"system": "trastuzumab", "test": "ELISA of biotinylated mimotope peptides on streptavidin plates titrated with trastuzumab", "format": "binding", "conditions": "400 nM biotinylated peptide coating, trastuzumab 2-fold serial dilutions", "procedure": "For intact mimotopes and their analogs, peptides with an N-terminal biotin label and a flexible spacer composed of serine and glycine residues (typically […]; SEQ ID NO:110) were used.\nELISA plates coated with tetravalent streptavidin were obtained for the assay, either from a commercial source (such as Thermofisher) or made by incubating polystyrene 96-well ELISA plates with solutions of streptavidin in PBS (1 μM) 16 hours/4° C., followed by blocking with a solution of bovine serum albumin (BSA) at 10 mg/ml in PBS pH 7.2, also for 16 hours/4° C. Plates were then emptied of solutions and washed three times with 100 μl PBS containing 0.05% Tween 20 (PBS-Tw20).\nA suitable dilution series of the biotinylated peptides of interest was prepared in PBS, and at least duplicates (or higher numbers of replicates) were added to pre-designated wells in 100 μl volumes, and the plate incubated for 2 hours at room temperature (covered in Saran wrap). […] After a 30 minute incubation, reactions were stopped with 1 M sulfuric acid, and results assessed with an automated plate reader for absorbances at 450 nm. Final data was compiled from averaged replicates for each determination with subtraction of absorbances observed in wells where no target peptide antigen was added. […]"}, "trastuzumab [3]": {"system": "trastuzumab", "test": "Flow analysis of trastuzumab mimotope placed on HER-2-negative MU89 cells via streptavidin bridge", "format": "cell-based", "conditions": "MU89 melanoma cells, W6/32 biotinylated primary antibody, fluoresceinated goat anti-kappa read-out", "source_text": "In common with Example 11, for the repurposing of an antibody epitope by placement of a peptide mimotope on a cell surface, a surface marker for the cell type of interest was defined. […] The complex (biotinylated template-streptavidin-primary antibody) was then assembled on MU89 surface. Following that procedure and washing, biotinylated mimotope (Biotin-[…] ELWELSH; SEQ ID NO:35) was allowed to bind to the surface streptavidin. […] Subsequently, since trastuzumab is a humanized antibody with kappa light chains, a fluoresceinated goat anti-kappa antibody served to provide the final fluorescent read-out enabling flow analysis. […] However, it should be noted that while an amplification effect for fluorescent signal results from the multi-layered sandwich technique of this approach, the overall signal is ultimately linked to the level of expression of the primary antibody target."}, "trastuzumab [4]": {"system": "trastuzumab", "conditions": "L1 Q substitution; cited from earlier work"}, "[5]": {"system": "biotinylated anti-BRD7 Fab (bFab)", "test": "Direct Binding Assay using streptavidin magnetic beads, denaturing gel read-out", "design": "species or system murine", "conditions": "with vs without bFab, PBSM", "procedure": "Aptamers were incubated with bFab (2.5-fold molar excess), then bound to SAMBs. Supernatants were taken, and the SAMBs washed 3 times. Bound material was eluted with 0.1 M NaOH, and then precipitated, washed, dried, and reconstituted before loading samples on a denaturing acrylamide gel.\nTo assess binding of 10th-cycle singlet aptamers to the selective agent (the Fab target), direct binding assays were carried out. Here, single-stranded aptamer preparations (self-annealed as usual) were incubated with or without biotinylated Fab fragments in PBSM, followed by adsorption onto streptavidin magnetic beads. After this incubation period, the beads were magnetically separated, and the supernatants retained. […]\nDespite successful in situ assembly of binary aptamers upon the target to which they were bound (as in Example 1), it could not be assumed that binary aptamers formed in solution would be capable of binding the same targets. This was assessed using the same aptamers as used in direct binding tests (Example 3; 228/10AptR1 and 229/10AptL3), but where the aptamers were initially ligated together by means of the same splint oligonucleotide as used in Example 1. […]"}},
  "note": "No end group written: not given here. *: point of attachment. Biotin = O=C1N[C@H]2[C@H](CS[C@H]2CCCCC(=O)*)N1",
  "data": [
    {"molecule": "5′ Biotin-TAGCGCAAATAAGCCGCCAGAAC GATGATATAAACAGCATTAGGTAAGCTACAACA [control scrambled sequence, reference compound]", "values": [
      {"measurement": "fluorescence signal of bilabeled probe hybridized to surface template", "setting": "[1]", "value": "not"}
    ]},
    {"molecule": "5′-Biotin-TAACTGTCAAAAGCCACTGTGTC CTGAAGAAAAGCAAAGACATCTGGACAAAAAGC", "values": [
      {"measurement": "fluorescence signal of bilabeled probe hybridized to surface template", "setting": "[1]", "value": "significant signal"}
    ]},
    {"molecule": "Bio-SGGGSGGGQLGPYELWEL CH (Biotin-SGGGSGGGQLGPYELWELCH) [cysteine-modified mimotope]", "values": [
      {"measurement": "recognition by Trastuzumab compared with the unmodified mimotope", "setting": "trastuzumab [2]", "value": "almost the same extent"},
      {"measurement": "slope of trastuzumab titration curve, less than that seen for the unmodified peptide", "setting": "trastuzumab [2]", "value": "approximately 10%"}
    ]},
    {"molecule": "Bio-SGGGSGGGQLGPYELWELSH (Biotin-SGGGSGGGQLGPYELWELSH) [unmodified mimotope]", "values": [
      {"measurement": "fluorescent signal from trastuzumab", "setting": "trastuzumab [3]", "value": "clear-cut fluorescent signal"}
    ]},
    {"molecule": "QLGPYEL WELSH (QLGPYELWELSH; segment of the mimotope) [mimotope for trastuzumab]", "values": [
      {"measurement": "binding affinity relative to the initial mimotope LLGPYELWEL SH", "setting": "trastuzumab [4]", "value": "higher binding affinity"}
    ]},
    {"molecule": "B1", "values": [
      {"measurement": "binding to biotinylated Fab (bound material eluted from streptavidin magnetic beads)", "setting": "[5]", "value": "not"}
    ]}
  ]
}
